Read-outs that look alike come from different tables or passages of the source.
What was measured:
[1] = tested on: duration of anesthesia induced by the combination of xylazine and ketamine in rats; experiment: Effect on duration of anesthesia induced by xylazine and ketamine; type: in vivo, Male Sprague-Dawley rats; settings: 3 mg/kg i.p.; for Duration of anesthesia (min), Compound treated group: n = 5, mean ± S.E.M., return of righting reflex as endpoint; for Effect on duration of anaesthesia (in words): n=5
Protocol: (§1) Compound I of the present invention was compared to Compound II by testing the for effects on the duration of anesthesia induced by the combination of xylazine and ketamine in rats. Male Sprague-Dawley rats were anaesthetised with a combination of xylazine (10 mg/kg) and ketamine (10 mg/kg) administered in a single intramuscular injection in the back hindlimb. Fifteen minutes later, the drug to be tested or its vehicle was injected intraperitoneally (dosing volume=1 ml/kg) and the animals were placed in dorsal recumbence. The compounds were dissolved immediately before use in polyethylene glycol (M.W. 200). The return of the righting reflex (i.e. when the animal no longer remained on its back and turned itself spontaneously to the prone position) was used as an endpoint to determine the duration of anaesthesia.
(§2) At the end of the experiment, at 60 minutes post-dosing, plasma and brain samples were taken for drug concentration determination.

[2] = Plasma and brain concentrations at 60 minutes post-dosing; type: in vivo; settings: male, Sprague-Dawley, rat, ip, rats, 3 mg/kg i.p.; for Kp at 60 min: brain and plasma, n=5
Protocol: as §1, §2
However, the distribution to the brain was very different for each compound.

[3] = brain, n=5, read-out: Brain concentration
[4] = plasma, n=5, read-out: Plasma concentration

| Compound | Inhibition % (of duration of anesthesia vs vehicle treated group) [1] [%] | Duration of anesthesia (min), Compound treated group [1] [min] | Effect on duration of anaesthesia (in words) [1] | Kp at 60 min [2] | concentration at 60 min [2, 3] [nM] | concentration at 60 min [2, 4] [nM] |
| --- | --- | --- | --- | --- | --- | --- |
| O=C(Nc1c(Cl)c[n+]([O-])cc1Cl)c1ccc(OC(F)F)c(OCC2CC2)c1 [Compound Formula I, N-(3,5-Dichloro-1-oxido-pyridin-4-yl)-4-difluoromethoxy-3-cyclopropylmethoxybenzamide] | 15.6 | 37.40 ± 7.83 | did not significantly modify the duration of anaesthesia | 0.0938 | 410 ± 150 | 4370 ± 1650 |
| O=C(Nc1c(Cl)cncc1Cl)c1ccc(OC(F)F)c(OCC2CC2)c1 [Compound Formula II, N-(3,5-Dichloropyridin-4-yl)-4-difluoromethoxy-3-cyclopropylmethoxybenzamide] | 54.7 | 19.20 ± 4.68 | significant reduction in the duration of the anaesthesia | 0.75 | 150 ± 50 | 200 ± 80 |
